From PMC4305287, “Two Novel α7 Nicotinic Acetylcholine Receptor Ligands: In Vitro Properties and Their Efficacy in Collagen-Induced Arthritis in Mice” (PLoS ONE, 2015)

Legend:
[1] = test system: T1, human α7 nAChR primed with PNU-120596; experiment: electrophysiology of oocytes primed with PNU-120596; type: biochemical
T1 construct: expressed in transfected cells; host or cells: Xenopus laevis oocytes injected with cRNA; clones from Dr. Jon Lindstrom (α7) and Dr. Millet Treinin (RIC-3)
Protocol: Each oocyte received two initial control applications of 300 μM ACh, followed by the experimental drug application, and subsequent control application of 300 μM ACh, unless otherwise indicated. Responses to experimental drug applications were determined relative to the preceding ACh control responses in order to normalize the data, compensating for the varying levels of channel expression among the oocytes. Responses for α7 nAChR were calculated as net charge, since peak currents inaccurately report the agonist concentration dependence of α7 nAChR-mediated responses. […] Imax, n, and the EC50 were all unconstrained for the fitting procedures except in the case of the ACh concentration-response curves.

[2] = test system: microglia; parameters: method as in PMID 22884467; settings: cited from earlier work
[3] = test system: memory retention; parameters: method as in PMID 19845675; settings: cited from earlier work
[4] = test system: collagen-induced arthritis; parameters: method as in PMID 19116908; settings: cited from earlier work

For `CCN1C[C@]2(COC(=O)c3ccccc3N3C(=O)C[C@H](C)C3=O)CC[C@H](OC)[C@@]34[C@@H]5C[C@H]6[C@H](OC)[C@@H]5[C@](O)(C[C@@H]6OC)[C@@](O)([C@@H](OC)[C@H]23)[C@@H]14` [MLA, methyllycaconitine], the “ion channel response of PNU-120596 primed cells” value ([1]; after 60 s priming with 300 μM PNU-120596, PMP-311 1 μM, PMP-072 10 μM, MLA 10 μM) was “fail to activate the primed cells”.
With `COc1cc(OC)c(NC(=O)Nc2cc(C)on2)cc1Cl` [PNU-120596] the “ion channel current during PNU-120596 application alone” value ([1]; 300 μM for 60 s) was “No ion channel current was stimulated”.
In the case of `O=C(c1ccc(-c2cccc(C(F)(F)F)c2)o1)N1CCN2CCC1CC2` [NS-6740], the “LPS-induced TNF release in microglia” value [2] is given as “reduce LPS-induced TNF release” and the “memory retention in a cognitive mouse model” value [3] is given as “unable to improve memory retention”.
For `O=C1NCC2(CN3CCC2CC3)O1` (centres unmarked) [AR-R17779], the “effect on arthritis activity in CIA” value [4] is listed as “ameliorates arthritis activity”.
